# Test results taken from US6525001B1, “Substituted pyrimidine and pyridine herbicides” (Mid-American Commercialization Corporation, priority 1997, dated 2003).
# Tests used:
# Test in all cases: Test B pre-/postemergence
# Format in all cases: in vivo
# Design in all cases: key: 0 is no effect; 10 is complete control
# [1] = test system: bedstraw (Galium aparine)
# Outline: (§1)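 Response scores run from 0, meaning no effect, to 10, meaning complete control, assigned by eye relative to controls twelve to sixteen days after spraying. Treatment was both preemergence on planted seed and postemergence on plants at the 1- to 4-leaf stage.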
# [2] = test system: blackgrass (Alopecurus myosuroides)
# Outline: as §1
# [3] = test system: broadleaf signalgrass (Brachiaria decumbens); settings: Preemergence
# Outline: as §1
# [4] = test system: cocklebur (Xanthium strumarium)
# Outline: as §1
# corn (Zea mays) = test system: corn (Zea mays)
# Outline: as §1
# [5] = test system: crabgrass (Digitaria sanguinalis)
# Outline: as §1
# [6] = test system: momingglory (Ipomoea hederacea)
# Outline: as §1
# [7] = test system: pigweed (Amaranthus retroflexus)
# Outline: as §1
# rape (Brassica napus) = test system: rape (Brassica napus)
# Outline: as §1
# soybean (Glycine max) = test system: soybean (Glycine max)
# Outline: as §1
# [8] = test system: sugar beet (Beta vulgaris)
# Outline: as §1
# [9] = test system: velvetleaf (Abutilon theophrasti)
# Outline: as §1
# [10] = test system: wheat (Triticum aestivum)
# Outline: as §1
# wild oat (Avena fatua) = test system: wild oat (Avena fatua)
# Outline: as §1
structure (smiles),measurement,setting,value
Cc1cnc(-c2ccc(Cl)cc2)nc1Cn1ccc(C(F)(F)F)n1 [Compound 6],"Plant response rating, Bedstraw","[1]; Rate 62 g/ha, Postemergence",5
same,Bedstraw plant response rating,"[1]; Rate 62 g/ha, Preemergence",0
same,"Plant response rating, Bedstraw","[1]; Rate 125 g/ha, Postemergence",7
same,Bedstraw plant response rating,"[1]; Rate 125 g/ha, Preemergence",0
same,"Plant response rating, Bedstraw","[1]; Rate 250 g/ha, Postemergence",7
same,"Plant response rating, Bedstraw","[1]; Rate 250 g/ha, Preemergence",0
same,"Plant response rating, Bedstraw","[1]; Rate 500 g/ha, Postemergence",8
same,"Plant response rating, Bedstraw","[1]; Rate 500 g/ha, Preemergence",5
same,"Plant response rating, Blackgrass","[2]; Rate 62 g/ha, Postemergence",0
same,Blackgrass plant response rating,"[2]; Rate 62 g/ha, Preemergence",0
same,"Plant response rating, Blackgrass","[2]; Rate 125 g/ha, Postemergence",2
same,Blackgrass plant response rating,"[2]; Rate 125 g/ha, Preemergence",0
same,"Plant response rating, Blackgrass","[2]; Rate 250 g/ha, Postemergence",2
same,"Plant response rating, Blackgrass","[2]; Rate 250 g/ha, Preemergence",0
same,"Plant response rating, Blackgrass","[2]; Rate 500 g/ha, Postemergence",2
same,"Plant response rating, Blackgrass","[2]; Rate 500 g/ha, Preemergence",4
same,B. signalgrass plant response rating,[3]; Rate 62 g/ha,1
same,B. signalgrass plant response rating,[3]; Rate 125 g/ha,4
same,"Plant response rating, B. signalgrass",[3]; Rate 250 g/ha,9
same,"Plant response rating, B. signalgrass",[3]; Rate 500 g/ha,9
same,"Plant response rating, Cocklebur","[4]; Rate 62 g/ha, Postemergence",5
same,Cocklebur plant response rating,"[4]; Rate 62 g/ha, Preemergence",0
same,"Plant response rating, Cocklebur","[4]; Rate 125 g/ha, Postemergence",6
same,Cocklebur plant response rating,"[4]; Rate 125 g/ha, Preemergence",0
same,"Plant response rating, Cocklebur","[4]; Rate 250 g/ha, Postemergence",7
same,"Plant response rating, Cocklebur","[4]; Rate 250 g/ha, Preemergence",0
same,"Plant response rating, Cocklebur","[4]; Rate 500 g/ha, Postemergence",7
same,"Plant response rating, Cocklebur","[4]; Rate 500 g/ha, Preemergence",0
same,"Plant response rating, Corn","corn (Zea mays); Rate 62 g/ha, Postemergence",3
same,Corn plant response rating,"corn (Zea mays); Rate 62 g/ha, Preemergence",0
same,"Plant response rating, Corn","corn (Zea mays); Rate 125 g/ha, Postemergence",3
same,Corn plant response rating,"corn (Zea mays); Rate 125 g/ha, Preemergence",0
same,"Plant response rating, Corn","corn (Zea mays); Rate 250 g/ha, Postemergence",3
same,"Plant response rating, Corn","corn (Zea mays); Rate 250 g/ha, Preemergence",0
same,"Plant response rating, Corn","corn (Zea mays); Rate 500 g/ha, Postemergence",3
same,"Plant response rating, Corn","corn (Zea mays); Rate 500 g/ha, Preemergence",0
same,"Plant response rating, Crabgrass","[5]; Rate 62 g/ha, Postemergence",5
same,Crabgrass plant response rating,"[5]; Rate 62 g/ha, Preemergence",1
same,"Plant response rating, Crabgrass","[5]; Rate 125 g/ha, Postemergence",8
same,Crabgrass plant response rating,"[5]; Rate 125 g/ha, Preemergence",2
same,"Plant response rating, Crabgrass","[5]; Rate 250 g/ha, Postemergence",8
same,"Plant response rating, Crabgrass","[5]; Rate 250 g/ha, Preemergence",8
same,"Plant response rating, Crabgrass","[5]; Rate 500 g/ha, Postemergence",9
same,"Plant response rating, Crabgrass","[5]; Rate 500 g/ha, Preemergence",10
same,"Plant response rating, Morningglory","[6]; Rate 62 g/ha, Postemergence",3
same,Morningglory plant response rating,"[6]; Rate 62 g/ha, Preemergence",1
same,"Plant response rating, Morningglory","[6]; Rate 125 g/ha, Postemergence",8
same,Morningglory plant response rating,"[6]; Rate 125 g/ha, Preemergence",1
same,"Plant response rating, Morningglory","[6]; Rate 250 g/ha, Postemergence",8
same,"Plant response rating, Morningglory","[6]; Rate 250 g/ha, Preemergence",2
same,"Plant response rating, Morningglory","[6]; Rate 500 g/ha, Postemergence",8
same,"Plant response rating, Morningglory","[6]; Rate 500 g/ha, Preemergence",2
same,"Plant response rating, Redroot pigweed","[7]; Rate 62 g/ha, Postemergence",5
same,Redroot pigweed plant response rating,"[7]; Rate 62 g/ha, Preemergence",0
same,"Plant response rating, Redroot pigweed","[7]; Rate 125 g/ha, Postemergence",7
same,Redroot pigweed plant response rating,"[7]; Rate 125 g/ha, Preemergence",3
same,"Plant response rating, Redroot pigweed","[7]; Rate 250 g/ha, Postemergence",9
same,"Plant response rating, Redroot pigweed","[7]; Rate 250 g/ha, Preemergence",6
same,"Plant response rating, Redroot pigweed","[7]; Rate 500 g/ha, Postemergence",9
same,"Plant response rating, Redroot pigweed","[7]; Rate 500 g/ha, Preemergence",6
same,"Plant response rating, Rape","rape (Brassica napus); Rate 62 g/ha, Postemergence",8
same,Rape plant response rating,"rape (Brassica napus); Rate 62 g/ha, Preemergence",0
same,"Plant response rating, Rape","rape (Brassica napus); Rate 125 g/ha, Postemergence",8
same,Rape plant response rating,"rape (Brassica napus); Rate 125 g/ha, Preemergence",2
same,"Plant response rating, Rape","rape (Brassica napus); Rate 250 g/ha, Postemergence",8
same,"Plant response rating, Rape","rape (Brassica napus); Rate 250 g/ha, Preemergence",4
same,"Plant response rating, Rape","rape (Brassica napus); Rate 500 g/ha, Postemergence",8
same,"Plant response rating, Rape","rape (Brassica napus); Rate 500 g/ha, Preemergence",7
same,"Plant response rating, Soybean","soybean (Glycine max); Rate 62 g/ha, Postemergence",6
same,Soybean plant response rating,"soybean (Glycine max); Rate 62 g/ha, Preemergence",0
same,"Plant response rating, Soybean","soybean (Glycine max); Rate 125 g/ha, Postemergence",6
same,Soybean plant response rating,"soybean (Glycine max); Rate 125 g/ha, Preemergence",0
same,"Plant response rating, Soybean","soybean (Glycine max); Rate 250 g/ha, Postemergence",6
same,"Plant response rating, Soybean","soybean (Glycine max); Rate 250 g/ha, Preemergence",0
same,"Plant response rating, Soybean","soybean (Glycine max); Rate 500 g/ha, Postemergence",6
same,"Plant response rating, Soybean","soybean (Glycine max); Rate 500 g/ha, Preemergence",0
same,"Plant response rating, Sugarbeets","[8]; Rate 62 g/ha, Postemergence",7
same,Sugarbeets plant response rating,"[8]; Rate 62 g/ha, Preemergence",0
same,"Plant response rating, Sugarbeets","[8]; Rate 125 g/ha, Postemergence",8
same,Sugarbeets plant response rating,"[8]; Rate 125 g/ha, Preemergence",3
same,"Plant response rating, Sugarbeets","[8]; Rate 250 g/ha, Postemergence",8
same,"Plant response rating, Sugarbeets","[8]; Rate 250 g/ha, Preemergence",9
same,"Plant response rating, Sugarbeets","[8]; Rate 500 g/ha, Postemergence",9
same,"Plant response rating, Sugarbeets","[8]; Rate 500 g/ha, Preemergence",10
same,"Plant response rating, Velvetleaf","[9]; Rate 62 g/ha, Postemergence",7
same,Velvetleaf plant response rating,"[9]; Rate 62 g/ha, Preemergence",1
same,"Plant response rating, Velvetleaf","[9]; Rate 125 g/ha, Postemergence",7
same,Velvetleaf plant response rating,"[9]; Rate 125 g/ha, Preemergence",2
same,"Plant response rating, Velvetleaf","[9]; Rate 250 g/ha, Postemergence",8
same,"Plant response rating, Velvetleaf","[9]; Rate 250 g/ha, Preemergence",2
same,"Plant response rating, Velvetleaf","[9]; Rate 500 g/ha, Postemergence",8
same,"Plant response rating, Velvetleaf","[9]; Rate 500 g/ha, Preemergence",3
same,"Plant response rating, Wheat","[10]; Rate 62 g/ha, Postemergence",1
same,Wheat plant response rating,"[10]; Rate 62 g/ha, Preemergence",0
same,"Plant response rating, Wheat","[10]; Rate 125 g/ha, Postemergence",2
same,Wheat plant response rating,"[10]; Rate 125 g/ha, Preemergence",0
same,"Plant response rating, Wheat","[10]; Rate 250 g/ha, Postemergence",2
same,"Plant response rating, Wheat","[10]; Rate 250 g/ha, Preemergence",0
same,"Plant response rating, Wheat","[10]; Rate 500 g/ha, Postemergence",3
same,"Plant response rating, Wheat","[10]; Rate 500 g/ha, Preemergence",0
same,"Plant response rating, Wild oats","wild oat (Avena fatua); Rate 62 g/ha, Postemergence",0
same,Wild oats plant response rating,"wild oat (Avena fatua); Rate 62 g/ha, Preemergence",0
same,"Plant response rating, Wild oats","wild oat (Avena fatua); Rate 125 g/ha, Postemergence",3
same,Wild oats plant response rating,"wild oat (Avena fatua); Rate 125 g/ha, Preemergence",0
same,"Plant response rating, Wild oats","wild oat (Avena fatua); Rate 250 g/ha, Postemergence",3
same,"Plant response rating, Wild oats","wild oat (Avena fatua); Rate 250 g/ha, Preemergence",2
same,"Plant response rating, Wild oats","wild oat (Avena fatua); Rate 500 g/ha, Postemergence",3
same,"Plant response rating, Wild oats","wild oat (Avena fatua); Rate 500 g/ha, Preemergence",3
